Assay [1] concerns the target HCV NS3/4A protease complex, BMS strain (UniProt P27958, C1454S/C1711G, species not given/STRAIN_BMS). In words: Recombinant HCV NS3/4A protease complex FRET peptide assay (BMS strain). It counts as biochemical, HCV genotype 1a. The conditions noted are these: NS3/4A BMS strain; read-out: IC50 range. In short, it runs like this: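 Recombinant BMS-strain NS3/4A (His-tagged NS4A with three-lysine tail, E. coli) at 2-3 nM preincubated 1 min with compound, then 2 μM ester-linked NS4A/NS4B-based FRET peptide added. Fluorescence followed in real time ~15 min at 25° C. Percent inhibition from slope of linear fluorescence change versus no-compound control.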

For assay [2], the system named is HCV replicon in Huh7 cells. In words: HCV replicon cell-based assay. Further details: species or system HCV strain 1B. Particulars: HCV replicon, Huh7 cells, read-out: EC50 range.

Read-outs that look alike come from different tables or passages of the source. Where only a bound is given, the exact number is not on record here.

This note sets out measurements from patent US7915291B2, “Hepatitis C virus inhibitors” (Bristol-Myers Squibb Company, priority 2002, dated 2011).

Consider `C=CC1C[C@]1(NC(=O)[C@@H]1C[C@@H](Oc2ccc3c(Cl)nccc3c2SCCC)CN1C(=O)[C@@H](NC(=O)OC(C)(C)C)C(C)(C)C)C(=O)NS(=O)(=O)C1CC1` (stereo partly drawn) [Compound 204, BOCNH-P3(L-t-BuGly)-P2[(4R)-(1-Chloro-5propylthio -isoquinolin-6-oxo)-S-proline]-P1(1R,2S VinylAcca)-CONHSO2Cyclopropane], for which the IC50 in assay [1] was < 100 nM. In addition, the EC50 in assay [2] (Hepatitis C virus, Huh-7) lay within 100 to 1000 nM.

Consider `C=CC1C[C@]1(NC(=O)[C@@H]1C[C@@H](Oc2nccc3c(SCCC)c(OCC)ccc23)CN1C(=O)[C@@H](NC(=O)OC(C)(C)C)C(C)(C)C)C(=O)NS(=O)(=O)C1CC1` (stereo partly drawn) [Compound 206, BOCNH-P3(L-t-BuGly)-P2[(4R)-(6-ethoxy-5propylthio -isoquinoline-1-oxo)-S-proline]-P1(1R,2S VinylAcca)-CONHSO2Cyclopropane], for which, in assay [1], the IC50 was < 100 nM. The EC50 in assay [2] (Hepatitis C virus, Huh-7) was < 100 nM.

Turning to `C=CC1C[C@]1(NC(=O)[C@@H]1C[C@@H](Oc2nccc3c(SC)c(OC)ccc23)CN1C(=O)[C@@H](NC(=O)OC(C)(C)C)C(C)(C)C)C(=O)NS(=O)(=O)C1CC1` (stereo partly drawn) [Compound 207, BOCNH-P3(L-t-BuGly)-P2 [(4R)-(6-methoxy-5-methylthio-isoquinolin-1-oxo)-S-proline]-P1(1R,2S VinylAcca)-CONHSO2Cyclopropane], the IC50 in assay [1] is < 100 nM. For the same compound, the half-maximal effective concentration (EC50) in assay [2] (Hepatitis C virus, Huh-7) is < 100 nM.

As for `C=CC1C[C@]1(NC(=O)[C@@H]1C[C@@H](Oc2nccc3c(C(=O)c4cccs4)c(OC)ccc23)CN1C(=O)[C@@H](NC(=O)OC(C)(C)C)C(C)(C)C)C(=O)NS(=O)(=O)C1CC1` (stereo partly shown) [Compound 209], the IC50 in assay [1] was < 100 nM. The EC50 in assay [2] (Hepatitis C virus, Huh-7) was in the range of 100 to 1000 nM.

Turning to `C=CC1C[C@]1(NC(=O)[C@@H]1C[C@@H](Oc2nccc3cc(C)ccc23)CN1C(=O)[C@@H](NC(=O)OC(C)(C)C)C(C)(C)C)C(=O)NS(=O)(=O)C1CC1` (stereo partly drawn) [Compound 210, BOCNH-P3(L-tert-BuGly)-P2[(4R)-(6-methyl isoquinolin-1-oxo)-S -proline]-P1(1R,2S Vinyl Acca)-CONHSO2-Cyclopropane], the IC50 in assay [1] was < 100 nM. Moreover, the EC50 in assay [2] (Hepatitis C virus, Huh-7) was < 100 nM.

In the case of `C=CC1C[C@]1(NC(=O)[C@@H]1C[C@@H](Oc2nccc3c4c(ccc23)OCO4)CN1C(=O)[C@@H](NC(=O)OC(C)(C)C)C(C)(C)C)C(=O)NS(=O)(=O)C1CC1` (stereo partly drawn) [Compound 211, BOCNH-P3(L-t-BuGly)-P2-[(4R)-(1,3-Dioxa-7-aza-cyclopenta[α]naphthalen-6-ol)-S -proline]-P1(1R,2S VinylAcca)-CONHSO2Cyclopropane], the IC50 in assay [1] was < 100 nM. The EC50 in assay [2] (Hepatitis C virus, Huh-7) was < 100 nM.

For `C=CC1C[C@]1(NC(=O)[C@@H]1C[C@@H](Oc2cc3c(Cl)nccc3c3c2OCO3)CN1C(=O)[C@@H](NC(=O)OC(C)(C)C)C(C)(C)C)C(=O)NS(=O)(=O)C1CC1` (stereo partly drawn) [Compound 212, BOCNH-P3(L-t-BuGly)-P2[(4R)-(6-Chloro-1,3-dioxa-7aza -cyclopenta[α]naphthalen-4-oxo)-S-proline]-P1(1R,2S VinylAcca)-CONHSO2Cyclopropane], the IC50 in assay [1] was < 100 nM. Also, in assay [2] (Hepatitis C virus, Huh-7), the EC50 was < 100 nM.

For `C=CC1C[C@]1(NC(=O)[C@@H]1C[C@@H](Oc2nccc3c4c(c(SC)cc23)OCO4)CN1C(=O)[C@@H](NC(=O)OC(C)(C)C)C(C)(C)C)C(=O)NS(=O)(=O)C1CC1` (stereo partly drawn) [Compound 213, BOCNH-P3(L-t-BuGly)-P2[(4R)-(4-methylthio-1,3-dioxa-7-aza-cyclopenta[a]naphthalen-6-yloxy)-S-proline]-P1(1R,2S VinylAcca)-CONHSO2Cyclopropane], in assay [1], the IC50 was < 100 nM. Also, the EC50 in assay [2] (Hepatitis C virus, Huh-7) is < 100 nM.

With `C=CC1C[C@]1(NC(=O)[C@@H]1C[C@@H](Oc2nc3c(c4ccccc24)CCC3)CN1C(=O)[C@@H](NC(=O)OC(C)(C)C)C(C)(C)C)C(=O)NS(=O)(=O)C1CC1` (stereo partly drawn) [Compound 215, BOCNH-P3(L-t-BuGly)-P2[(1R)-(2,3-dihydro-1 H-4aza -cyclopenta[α]naphthalen-5-yloxy)-S-proline]-P1(1R,2S VinylAcca)-CONHSO2Cyclopropane], the IC50 in assay [1] was < 100 nM. Also, in assay [2] (Hepatitis C virus, Huh-7), the EC50 was < 100 nM.

On to `C=CC1C[C@]1(NC(=O)[C@@H]1C[C@@H](Oc2nc3c(c4ccccc24)OCC3)CN1C(=O)[C@@H](NC(=O)OC(C)(C)C)C(C)(C)C)C(=O)NS(=O)(=O)C1CC1` (stereo partly drawn) [Compound 219, BOCNH-P3(L-t-BuGly)-P2[(4R)-(2,3-dihydro-1-oxa-4aza -cyclopenta[α]naphthalen-5-yloxy)-S-proline]-P1(1R,2S VinylAcca)-CONHSO2Cyclopropane], for which, in assay [1], the IC50 was < 100 nM. Moreover, the EC50 in assay [2] (Hepatitis C virus, Huh-7) is < 100 nM.

Turning to `C=CC1C[C@]1(NC(=O)[C@@H]1C[C@@H](Oc2nc3ccoc3c3ccccc23)CN1C(=O)[C@@H](NC(=O)OC(C)(C)C)C(C)(C)C)C(=O)NS(=O)(=O)C1CC1` (stereo partly drawn) [Compound 220, BOCNH-P3(L-t-BuGly)-P2[(4R)-(1-oxa-4-aza-cyclopenta[α]naphthalen-5-yloxy)-S-proline]-P1(1R,2S VinylAcca)-CONHSO2Cyclopropane], the IC50 in assay [1] is < 100 nM. For the same compound, the concentration for a half-maximal effect (EC50) in assay [2] (Hepatitis C virus, Huh-7) was < 100 nM.

With `C=CC1C[C@]1(NC(=O)[C@@H]1C[C@@H](Oc2nc(Br)c(OC)c3ccccc23)CN1C(=O)[C@@H](NC(=O)OC(C)(C)C)C(C)(C)C)C(=O)NS(=O)(=O)C1CC1` (stereo partly shown) [Compound 223], in assay [1], the IC50 is < 100 nM. For the same compound, the EC50 in assay [2] (Hepatitis C virus, Huh-7) is < 100 nM.

As to `C=CC1CC1(NC(=O)C1CC(Oc2nc(Br)c(O)c3ccccc23)CN1C(=O)C(NC(=O)OC(C)(C)C)C(C)(C)C)C(=O)NS(=O)(=O)C1CC1` (stereo not shown) [Compound 224], the IC50 in assay [1] is < 100 nM. Also, the EC50 in assay [2] (Hepatitis C virus, Huh-7) fell in the range of 100 to 1000 nM.

For the compound `C=CC1CC1(NC(=O)C1CC(Oc2nc(Br)c(OCOCC[Si](C)(C)C)c3ccccc23)CN1C(=O)C(NC(=O)OC(C)(C)C)C(C)(C)C)C(=O)NS(=O)(=O)C1CC1` (stereo not shown) [Compound 225], in assay [1], the IC50 is < 100 nM. Moreover, in assay [2] (Hepatitis C virus, Huh-7), the EC50 was 100 to 1000 nM.

Regarding `C=CC1C[C@]1(NC(=O)[C@@H]1C[C@@H](Oc2nc3c(c4ccccc24)OCOC3)CN1C(=O)[C@@H](NC(=O)OC(C)(C)C)C(C)(C)C)C(=O)NS(=O)(=O)C1CC1` (stereo partly drawn) [Compound 227, BOCNH-P3(L-t-BuGly)-P2[(4R)-(1,3-oxazino[5,6-c]isoquinoline-6-oxo)-S-proline]-P1(1R,2S VinylAcca)-CONHSO2Cyclopropane], in assay [1], the IC50 was < 100 nM. The EC50 in assay [2] (Hepatitis C virus, Huh-7) is < 100 nM.

Turning to `C=C[C@@H]1C[C@]1(NC(=O)[C@@H]1C[C@@H](Oc2nc(-c3ccoc3)c(OC)c3ccccc23)CN1C(=O)[C@@H](NC(=O)OC(C)(C)C)C(C)(C)C)C(=O)NS(=O)(=O)C1CC1` [Compound 229, BOCNH-P3(L-t-BuGly)-P2[(4R)-(3-furan-3-yl-4methoxy -isoquinolin-1-oxo)-S-proline]-P1(1R,2S VinylAcca)-CONHSO2Cyclopropane], the IC50 in assay [1] was < 100 nM. The EC50 in assay [2] is < 100 nM.

Consider `C=C[C@@H]1C[C@]1(NC(=O)[C@@H]1C[C@@H](Oc2nc(-c3ccco3)c(OC)c3ccccc23)CN1C(=O)[C@@H](NC(=O)OC(C)(C)C)C(C)(C)C)C(=O)NS(=O)(=O)C1CC1` [Compound 230, BOCNH-P3(L-t-BuGly)-P2[(4R)-(3-furan-2-yl-4-methoxy -isoquinolin-1-oxo)-S-proline]-P1(1R,2S VinylAcca)-CONHSO2Cyclopropane], for which the IC50 in assay [1] fell in the range of 100 to 1000 nM. Besides, in assay [2], the EC50 fell in the range of 100 to 1000 nM.

For `C=CC1C[C@]1(NC(=O)[C@@H]1C[C@@H](Oc2nc(-c3nccs3)c(OC)c3ccccc23)CN1C(=O)[C@@H](NC(=O)OC(C)(C)C)C(C)(C)C)C(=O)NS(=O)(=O)C1CC1` (stereo partly drawn) [Compound 232, BOCNH-P3(L-t-BuGly)-P2[(4R)-(4-methoxy-3-thiazol-2-yl -isoquinolin-1-oxo)-S-proline]-P1(1R,2S VinylAcca)-CONHSO2Cyclopropane], the IC50 in assay [1] was < 100 nM. In addition, the EC50 in assay [2] (Hepatitis C virus, Huh-7) was < 100 nM.

In the case of `C=CC1C[C@]1(NC(=O)[C@@H]1C[C@@H](Oc2nccc3occc23)CN1C(=O)[C@@H](NC(=O)OC(C)(C)C)C(C)(C)C)C(=O)NS(=O)(=O)C1CC1` (stereo partly shown) [Compound 233], in assay [1], the IC50 fell in the range of 100 to 1000 nM. In addition, the EC50 in assay [2] (Hepatitis C virus, Huh-7) was 100 to 1000 nM.

On to `C=CC1C[C@]1(NC(=O)[C@@H]1C[C@@H](Oc2nccc3sccc23)CN1C(=O)[C@@H](NC(=O)OC(C)(C)C)C(C)(C)C)C(=O)NS(=O)(=O)C1CC1` (stereo partly shown) [Compound 235], for which the IC50 in assay [1] was < 100 nM. In assay [2] (Hepatitis C virus, Huh-7), the EC50 lay in the range of 100 to 1000 nM.

With `C=CC1C[C@]1(NC(=O)[C@@H]1C[C@@H](Oc2cnc3ccccc3n2)CN1C(=O)[C@@H](NC(=O)OC(C)(C)C)C(C)(C)C)C(=O)NS(=O)(=O)C1CC1` (stereo partly drawn) [Compound 237, BOCNH-P3(L-t-BuGly)-P2[(4R)-(quinoxaline-2-oxo)-S-proline]-P1(1R,2S VinylAcca)-CONHSO2Cyclopropane], the IC50 in assay [1] was < 100 nM. For the same compound, in assay [2] (Hepatitis C virus, Huh-7), the EC50 lay in the range of 100 to 1000 nM.

On to `C=CC1C[C@]1(NC(=O)[C@@H]1C[C@@H](Oc2cc(C(F)(F)F)nc3ccc(F)cc23)CN1C(=O)[C@@H](NC(=O)OC(C)(C)C)C(C)(C)C)C(=O)NS(=O)(=O)C1CC1` (stereo partly drawn) [Compound 238, BOCNH-P3(L-t-BuGly)-P2[(4R)-(2-trifluoro-6-fluoroquinoline-4-oxo)-S-proline]-P1(1R,2S VinylAcca)-CONHSO2Cyclopropane], for which the IC50 in assay [1] was < 100 nM. In assay [2] (Hepatitis C virus, Huh-7), the EC50 is 100 to 1000 nM.

`C=CC1C[C@]1(NC(=O)[C@@H]1C[C@@H](Oc2ccnc3ccc(F)cc23)CN1C(=O)[C@@H](NC(=O)OC(C)(C)C)C(C)(C)C)C(=O)NS(=O)(=O)C1CC1` (stereo partly drawn) [Compound 239, BOCNH-P3(L-t-BuGly)-P2[(4R)-(6-fluoroquinoline-4-oxo)-S -proline]-P1(1R,2S VinylAcca)-CONHSO2Cyclopropane]: in assay [1], the IC50 was < 100 nM. In addition, the EC50 in assay [2] (Hepatitis C virus, Huh-7) was < 100 nM.
